Legend:
[1] = species on record: Homo sapiens; test: Selectivity index, ratio of Ki for human D2long receptor to Ki for human D3 receptor
[2] = target: D(2) dopamine receptor (Homo sapiens, UniProt P14416); test: Displacement of [3H]-raclopride from human D2long receptor expressed in HEK293Galpha15 cells after 120 mins by scintillation counting analysis; type: cell-based
[3] = target: D(3) dopamine receptor (Homo sapiens, UniProt P35462); test: Displacement of [3H]-raclopride from human D3 receptor expressed in CHO-K1 cells after 120 mins by scintillation counting analysis; type: cell-based
D(3) dopamine receptor, sequence (P35462 whole entry): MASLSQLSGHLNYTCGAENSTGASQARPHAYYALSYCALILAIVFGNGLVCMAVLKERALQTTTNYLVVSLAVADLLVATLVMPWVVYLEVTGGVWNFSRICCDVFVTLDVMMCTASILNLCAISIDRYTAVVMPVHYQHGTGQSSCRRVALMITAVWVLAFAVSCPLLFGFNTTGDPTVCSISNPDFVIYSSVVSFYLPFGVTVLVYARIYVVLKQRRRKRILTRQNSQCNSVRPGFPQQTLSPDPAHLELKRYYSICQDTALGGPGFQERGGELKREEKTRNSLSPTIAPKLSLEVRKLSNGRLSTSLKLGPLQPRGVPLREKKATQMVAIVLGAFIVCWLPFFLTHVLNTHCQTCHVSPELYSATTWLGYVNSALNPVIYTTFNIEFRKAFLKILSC

D(2) dopamine receptor, sequence (P14416 whole entry): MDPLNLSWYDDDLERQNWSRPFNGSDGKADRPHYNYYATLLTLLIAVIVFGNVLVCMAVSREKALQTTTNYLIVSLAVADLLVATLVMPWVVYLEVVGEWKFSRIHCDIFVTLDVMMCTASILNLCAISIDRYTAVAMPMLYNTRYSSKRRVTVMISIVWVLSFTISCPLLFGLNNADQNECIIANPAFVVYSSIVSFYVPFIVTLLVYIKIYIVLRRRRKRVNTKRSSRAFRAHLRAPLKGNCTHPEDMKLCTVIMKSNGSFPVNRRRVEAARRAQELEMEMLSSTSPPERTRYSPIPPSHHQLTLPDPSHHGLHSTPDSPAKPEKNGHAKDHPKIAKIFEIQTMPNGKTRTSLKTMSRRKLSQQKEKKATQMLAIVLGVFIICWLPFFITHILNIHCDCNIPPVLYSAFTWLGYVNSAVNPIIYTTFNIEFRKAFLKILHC

| Ratio Ki [1] | Ki [2] | Ki [3] | SMILES |
| --- | --- | --- | --- |
| 9 | 5.4 nM | 0.62 nM | N#Cc1cc(N2CCN(CC[C@H]3CC[C@H](NC(=O)CN)CC3)CC2)cc(C(F)(F)F)c1 |
| 39 | 30 nM | 0.75 nM | N#Cc1cc(N2CCN(CC[C@H]3CC[C@H](NC(N)=O)CC3)CC2)cc(C(F)(F)F)c1 |
| 55 | 37 nM | 0.67 nM | N#Cc1cc(N2CCN(CC[C@H]3CC[C@H](NS(N)(=O)=O)CC3)CC2)cc(C(F)(F)F)c1 |
